Reference: ChEMBL document CHEMBL5291721, “A preclinical secondary pharmacology resource illuminates target-adverse drug reaction associations of marketed drugs” (Nat Commun, 2023)

Key:
[1] = target: T1, Androgen receptor (Rattus norvegicus, UniProt P15207); assay type: functional
T1 sequence (P15207 whole entry): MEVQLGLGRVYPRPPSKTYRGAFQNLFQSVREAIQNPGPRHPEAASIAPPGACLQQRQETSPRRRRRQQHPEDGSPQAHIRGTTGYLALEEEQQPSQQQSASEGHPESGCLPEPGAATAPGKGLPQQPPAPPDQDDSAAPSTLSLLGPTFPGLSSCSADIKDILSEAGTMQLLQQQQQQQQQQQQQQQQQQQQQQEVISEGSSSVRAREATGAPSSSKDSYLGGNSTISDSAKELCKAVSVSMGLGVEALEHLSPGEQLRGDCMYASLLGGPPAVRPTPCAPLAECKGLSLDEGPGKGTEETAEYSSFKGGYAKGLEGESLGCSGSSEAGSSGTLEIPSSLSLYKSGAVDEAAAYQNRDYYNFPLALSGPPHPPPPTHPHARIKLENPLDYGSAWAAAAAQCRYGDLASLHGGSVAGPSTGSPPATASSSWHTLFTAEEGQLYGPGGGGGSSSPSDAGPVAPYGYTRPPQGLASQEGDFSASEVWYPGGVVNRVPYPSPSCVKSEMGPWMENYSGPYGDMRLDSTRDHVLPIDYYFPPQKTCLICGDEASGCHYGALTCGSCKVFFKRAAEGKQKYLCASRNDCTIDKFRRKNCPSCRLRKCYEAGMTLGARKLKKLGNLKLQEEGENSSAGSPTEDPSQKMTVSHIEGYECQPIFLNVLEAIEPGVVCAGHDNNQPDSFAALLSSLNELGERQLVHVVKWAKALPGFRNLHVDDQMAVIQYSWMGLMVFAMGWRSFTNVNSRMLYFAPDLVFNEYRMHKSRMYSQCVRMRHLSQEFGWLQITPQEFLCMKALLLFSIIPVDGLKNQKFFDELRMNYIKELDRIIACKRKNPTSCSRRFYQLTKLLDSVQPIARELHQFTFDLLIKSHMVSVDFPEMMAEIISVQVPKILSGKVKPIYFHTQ

[2] = target: T2, Estrogen receptor (Homo sapiens, UniProt P03372); assay type: functional
T2 sequence (P03372 whole entry): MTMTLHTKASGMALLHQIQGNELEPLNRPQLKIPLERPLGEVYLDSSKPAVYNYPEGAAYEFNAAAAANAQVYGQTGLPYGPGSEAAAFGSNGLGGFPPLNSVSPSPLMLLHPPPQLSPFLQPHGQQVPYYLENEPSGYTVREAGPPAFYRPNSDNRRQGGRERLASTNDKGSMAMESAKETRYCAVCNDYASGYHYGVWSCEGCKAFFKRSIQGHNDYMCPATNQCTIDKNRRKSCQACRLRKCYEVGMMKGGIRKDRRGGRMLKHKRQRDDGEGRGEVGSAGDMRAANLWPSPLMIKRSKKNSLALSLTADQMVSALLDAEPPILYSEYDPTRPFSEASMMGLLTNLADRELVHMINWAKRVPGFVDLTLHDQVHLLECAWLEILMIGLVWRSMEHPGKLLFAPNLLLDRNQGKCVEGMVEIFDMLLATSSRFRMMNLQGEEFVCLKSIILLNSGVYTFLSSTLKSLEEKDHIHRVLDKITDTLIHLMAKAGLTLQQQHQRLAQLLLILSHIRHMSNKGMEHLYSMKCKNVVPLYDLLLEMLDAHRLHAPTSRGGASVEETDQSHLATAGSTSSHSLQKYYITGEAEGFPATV

[3] = target: T1, Androgen receptor
[4] = target: T3, 5-hydroxytryptamine receptor 1A (Homo sapiens, UniProt P08908)
T3 sequence (P08908 whole entry): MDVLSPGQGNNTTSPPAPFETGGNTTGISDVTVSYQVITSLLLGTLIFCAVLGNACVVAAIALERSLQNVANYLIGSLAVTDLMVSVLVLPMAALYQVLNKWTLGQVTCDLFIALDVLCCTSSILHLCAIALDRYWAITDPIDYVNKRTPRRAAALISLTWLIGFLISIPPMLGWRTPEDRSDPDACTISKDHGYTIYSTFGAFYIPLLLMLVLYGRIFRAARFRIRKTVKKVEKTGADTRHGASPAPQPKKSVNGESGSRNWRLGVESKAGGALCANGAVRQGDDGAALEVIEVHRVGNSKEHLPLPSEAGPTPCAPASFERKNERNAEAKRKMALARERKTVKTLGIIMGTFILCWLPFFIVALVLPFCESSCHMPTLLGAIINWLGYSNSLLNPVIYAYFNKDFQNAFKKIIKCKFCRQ

[5] = target: D(1A) dopamine receptor (Homo sapiens, UniProt P21728)
Sequence of D(1A) dopamine receptor (P21728 whole entry): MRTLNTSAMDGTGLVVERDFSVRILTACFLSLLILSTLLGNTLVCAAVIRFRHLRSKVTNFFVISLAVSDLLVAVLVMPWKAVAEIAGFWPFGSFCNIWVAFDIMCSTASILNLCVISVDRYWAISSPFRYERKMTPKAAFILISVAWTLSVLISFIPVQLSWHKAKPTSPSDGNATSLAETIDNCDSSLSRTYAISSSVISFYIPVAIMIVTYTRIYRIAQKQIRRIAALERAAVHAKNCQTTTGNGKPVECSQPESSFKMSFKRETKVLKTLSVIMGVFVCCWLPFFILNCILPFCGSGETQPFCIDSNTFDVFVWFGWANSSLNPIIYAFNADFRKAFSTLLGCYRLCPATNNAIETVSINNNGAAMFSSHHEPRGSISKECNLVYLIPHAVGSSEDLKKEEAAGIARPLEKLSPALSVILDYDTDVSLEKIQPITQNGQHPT
Note: assay procedure not described here.

| SMILES | AC50 [1] [µM] | AC50 [2] [µM] | AC50 [3] [µM] | AC50 [4] [µM] | AC50 [5] [µM] |
| --- | --- | --- | --- | --- | --- |
| CO/N=C(\C(=O)N[C@@H]1C(=O)N2C(C(=O)[O-])=C(C[N+]3(C)CCCC3)CS[C@H]12)c1csc(N)n1 | > 300 | > 300 | – | – | – |
| CC(N)Cc1ccccc1 (centres undefined) [AMPHETAMINE] | > 30 | > 30 | > 30 | > 10 | – |
| COC(=O)[C@@H]1CC2=CC(=O)CC[C@]2(C)[C@@]23O[C@@H]2C[C@@]2(C)[C@@H](CC[C@@]24CCC(=O)O4)[C@H]13 [EPLERENONE] | – | > 30 | – | > 10 | > 10 |
| CC(C)NNC(=O)c1ccncc1 [IPRONIAZID] | > 30 | > 30 | – | – | – |
| CC[C@H](C)C(=O)O[C@H]1C[C@H](O)C=C2C=C[C@H](C)[C@H](CC[C@@H](O)C[C@@H](O)CC(=O)O)[C@H]21 [PRAVASTATIN] | – | > 30 | – | – | – |
| OCc1cc([C@@H](O)CNCCCCCCOCCOCc2c(Cl)cccc2Cl)ccc1O [VILANTEROL] | > 30 | > 30 | – | – | – |
